In article PMC11032326, “A practical synthesis of nitrone-derived C5a-functionalized isofagomines as protein stabilizers to treat Gaucher disease” (Communications Chemistry, 2024):
Values belong to the molecule of their own block, whether it stands above or below them.

Columns and labels:
[1] = tested on: β-glucosidase activity in p.Asn370Ser/p.Leu29Alafs*18 Gaucher fibroblasts (GM00372); assay: Intact cell β-glucosidase activity study (chaperone activity) in Gaucher fibroblasts; format: cell-based, human; conditions: compared to untreated cells (=1)
Method: (§1) GM00372 cells were seeded into 96-well culture plates. […] The final concentration of DMSO was <0.5% which had no cytotoxicity or glucosidase inhibition. The cells were incubated for 5 days and the medium for DMSO-treated cells or compound-treated cells was renewed every 3 days. The enzyme activity assay was performed after removing the medium supplemented with compounds. Compounds were evaluated at all concentrations in triplicate. The monolayers were washed with Dulbecco’s PBS solution (Gibco pH 7.4). PBS (16 μL) and acetate buffer (0.2 M, 16 μL, pH 4.0) were added to each well. The reaction was started by the addition of 4-methylumbelliferyl β-D-glucoside (4 mM, 25 μL, Sigma) to each well, followed by incubation at 37 °C for 2 h. The reaction was stopped by lysing the cells with glycine buffer (0.2 M, 200 μL, pH 10.8). The fluorescence was also measured by the release of 4-methylumbelliferone with an excitation wavelength of 355 nm and an emission wavelength of 460 nm (SpectraMax M5, Molecular Devices). The fluorescence of untreated cells was compared with those treated with compounds. Among the resynthesized compounds, compound 16 was further subjected to the same experiments described above thoroughly at the concentration of 0–500 nM. Likewise, 4-methylumbelliferyl α-D-glucoside (4 mM, 25 μL, Sigma) was used to evaluate the cellular α-glucosidase activity in GM00372 cells treated with or without compound 16 (0–500 nM).

[2] = target: T1, rh-GCase (Homo sapiens, UniProt P04062); assay: Thermal stability shift assay (fluorescence-based thermal denaturation); format: binding; conditions: compared to Tm of rh-GCase without small molecule; for ΔTm at 100 µM: pH 7, 100 µM, read-out: In-vitro rh-GCase stabilization ΔTm; for In-vitro rh-GCase stabilization ΔTm: 100 µM, pH 7.0
T1 sequence (P04062 40-536): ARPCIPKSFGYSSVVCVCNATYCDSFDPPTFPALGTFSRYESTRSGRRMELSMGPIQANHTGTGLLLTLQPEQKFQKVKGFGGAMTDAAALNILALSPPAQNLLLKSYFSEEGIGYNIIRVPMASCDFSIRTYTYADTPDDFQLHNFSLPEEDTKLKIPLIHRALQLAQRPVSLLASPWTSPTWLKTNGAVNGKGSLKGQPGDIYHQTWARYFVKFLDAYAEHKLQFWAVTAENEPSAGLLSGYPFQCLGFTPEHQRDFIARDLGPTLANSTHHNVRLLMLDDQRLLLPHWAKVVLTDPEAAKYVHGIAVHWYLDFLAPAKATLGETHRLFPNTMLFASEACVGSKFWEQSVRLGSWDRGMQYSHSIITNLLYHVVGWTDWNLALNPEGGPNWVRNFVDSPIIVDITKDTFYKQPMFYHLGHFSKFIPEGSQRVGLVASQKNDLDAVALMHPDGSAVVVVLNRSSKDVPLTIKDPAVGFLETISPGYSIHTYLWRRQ
Method: The stability of rh-GCase was assessed using a modified fluorescence thermal stability assay on a Rotor-Gene system in a neutral pH buffer (phosphate buffer, pH 7.0). […] A thermal gradient was applied to the plate at a rate of 1 °C/minute, during which time the fluorescence of SYPRO Orange was continuously monitored. The fluorescence intensity at each temperature was normalized to the maximum fluorescence after complete thermal denaturation.

[3] = target: T1, rh-GCase; assay: rh-GCase inhibition study (in-situ screening and IC50 of resynthesized compounds); format: biochemical; conditions: for IC50: resynthesized compounds, read-out: IC50 against rh-GCase
[4] = tested on: cellular α-glucosidase activity in GM00372 cells; assay: Intact cell α-glucosidase activity study in Gaucher fibroblasts; format: cell-based, human; conditions: 0–500 nM
Method: as §1, with “Likewise, 4-methylumbelliferyl α-D-glucoside (4 mM, 25 μL, Sigma) was used to evaluate the cellular α-glucosidase activity in GM00372 cells treated with or without compound 16 (0–500 nM).” left out

[5] = tested on: Gaucher p.Asn370Ser fibroblasts (GM00372); assay: rh-GCase activity in Gaucher patient fibroblasts (co-administration), GM00372; format: cell-based, human; conditions: rh-GCase 0.17 μM, 16 at 1 μM, 24 h
Method: (§2) Gaucher patient fibroblasts (GM00372 and GM00877) (2 × 10^4 cells) were seeded in 48-well culture plates and incubated overnight. […] After 24 h, the medium was refreshed without rh-GCase and SMPSs, then the cells were incubated for another 24 h. Cells were harvested by trypsinization and the cell pellets were washed twice with PBS and lysed with lysis buffer containing 0.1% Triton X-100, 50 mM Tris-HCl, and 150 mM NaCl. GCase activity assay was performed by mixing lysate (10 μl) and substrate (90 μL of 4 mM 4-methylumbelliferyl β-D-glucopyranoside) in 0.1 M NaOAc and incubating at 37 °C for 1 h. Reactions were terminated by adding 0.2 N glycine-NaOH, pH 10.7. The fluorescence was detected at excitation/emission wavelengths 355/460 nm.

[6] = tested on: p.Leu444Pro Gaucher fibroblasts (GM00877); assay: rh-GCase activity in Gaucher patient fibroblasts (co-administration), GM00877; format: cell-based, human; conditions: rh-GCase 0.17 μM, 16 at 1 μM, 24 h
Method: as §2

[7] = Fluorescence-based thermal shift assay of pegylated rh-GCases; format: physicochemical; conditions: rh-GCase modified by MeO-PEG-NHS (Mw 5000 Da), molar ratio reagent to enzyme
Source text: Supplementary Figure 1. Characterization of rh-GCase modified by MeO-PEG-NHS (Mw 5000 Da) with different molar ratios of reagent to the enzyme. (A) SDS-PAGE analysis of the pegylated rh-GCases indicated the acceptable effectiveness of the modification reaction, but reacting rh-GCase with longer MeO-PEG-NHS reagents resulted the incomplete pegylation (data not shown). (B) The […]
(also on this page, place not known: rh -GCase MeO -PEG-NHS rh -GCase MeO -PEG-NHS 40 50 60 70 0 20 40 60 80 100 Mono-PEG5k (50 eq) Mono-PEG5k (100 eq) Temperature (oC) Unfolded protein (%)) […]

Molecule: C/C(=C\c1ccccc1)C(=O)NC[C@@H]1NC[C@@H](O)[C@H](O)[C@H]1CO [Compound 15]
- β-glucosidase activity enhancement in p.Asn370Ser cells ([1]; 100 nM): 1.8 fold
- ΔTm at 100 µM [2]: 11.3 °C
- IC50 [3]: 30 ± 7.8 nM

Molecule: O=C(/C=C/c1cccc(Br)c1)NC[C@@H]1NC[C@@H](O)[C@H](O)[C@H]1CO [Compound 16]
- β-glucosidase activity enhancement in p.Asn370Ser cells ([1]; 10 nM): 2.5 fold
- β-glucosidase activity enhancement in p.Asn370Ser cells ([1]; 25 nM): up to 2.7 fold
- influence on cellular α-glucosidase activity [4]: without impairing cellular α-glucosidase activity
- In-vitro rh-GCase stabilization ΔTm [2]: 14.2 °C
- ΔTm at 100 µM [2]: 13.2 °C
- activity enhancement on co-administration with rh-GCase compared to rh-GCase alone [5]: 13 fold
- activity enhancement on co-administration with rh-GCase compared to rh-GCase alone [6]: 9.1 fold
- IC50 [3]: 4 ± 0.7 nM

Molecule: O=C(Cc1ccc(Br)cc1)NC[C@@H]1NC[C@@H](O)[C@H](O)[C@H]1CO [Compound 17]
- β-glucosidase activity enhancement in p.Asn370Ser cells ([1]; 100 nM): 1.7 fold
- In-vitro rh-GCase stabilization ΔTm [2]: 13.2 °C
- ΔTm at 100 µM [2]: 14.2 °C
- IC50 [3]: 5.1 ± 1.1 nM

Molecule: Cc1ccc(C(=O)NC[C@H]2NC[C@@H](O)[C@H](O)[C@H]2CO)c([N+](=O)[O-])c1 [Compound 18]
- IC50 [3]: 191 ± 43 nM

Molecule: COc1ccc(Br)cc1/C=C/C(=O)NC[C@H]1NC[C@@H](O)[C@H](O)[C@H]1CO [Compound 19]
- IC50 [3]: 7.7 ± 1.5 nM

Molecule: COc1ccc(C(=O)NC[C@H]2NC[C@@H](O)[C@H](O)[C@H]2CO)c(OC)c1 [Compound 20]
- IC50 [3]: 45.6 ± 13.7 nM

Molecule: O=C(NC[C@H]1NC[C@@H](O)[C@H](O)[C@H]1CO)c1cccc2c1C(=O)c1ccccc1-2 [Compound 21]
- IC50 [3]: 25.9 ± 11.1 nM

Molecule: O=C(Cc1ccc(Br)cc1)NC[C@H]1NC[C@@H](O)[C@H](O)[C@H]1CO [Compound 22]
- IC50 [3]: 250 ± 49 nM

B1: rh-GCase: recombinant human GCase used for enzyme replacement therapy (protein, UniProt P04062 40-536, looked up)
Lysosomal acid …: T1 sequence (P04062 40-536)
- Tm [7]: 49.1 ± 0.1 oC

B2: Mono-PEG5k (50 eq): rh-GCase modified by MeO-PEG-NHS (Mw 5000 Da), 50 eq of reagent (conjugate, UniProt P04062 40-536, looked up)
Lysosomal acid …: T1 sequence (P04062 40-536)
modifications: PEG 5 kDa, 50 eq
notes: rh-GCase modified by MeO-PEG-NHS (Mw 5000 Da), 50 eq of reagent
- Tm [7]: 51.7 ± 0.3 oC

B3: Mono-PEG5k (100 eq): rh-GCase modified by MeO-PEG-NHS (Mw 5000 Da), 100 eq of reagent (conjugate, UniProt P04062 40-536, looked up)
Lysosomal acid …: T1 sequence (P04062 40-536)
modifications: PEG 5 kDa, 100 eq
notes: rh-GCase modified by MeO-PEG-NHS (Mw 5000 Da), 100 eq of reagent
- Tm [7]: 50.3 ± 0.4 oC

Second part, led by results:

- IC50 [3]: 63.6 ± 9.5 nM
Molecule: O=C(NC[C@@H]1NC[C@@H](O)[C@H](O)[C@H]1CO)c1ccc2ccccc2c1 [Compound 23]

- IC50 [3]: 11 ± 0.7 nM
Molecule: Cc1ccc(C(=O)NC[C@@H]2NC[C@@H](O)[C@H](O)[C@H]2CO)c([N+](=O)[O-])c1 [Compound 24]

- IC50 [3]: 26.4 ± 8 nM
Molecule: COc1ccc(Br)cc1/C=C/C(=O)NC[C@@H]1NC[C@@H](O)[C@H](O)[C@H]1CO [Compound 25]

- IC50 [3]: 200 ± 32 nM
Molecule: COc1ccc(C(=O)NC[C@@H]2NC[C@@H](O)[C@H](O)[C@H]2CO)c(OC)c1 [Compound 26]

- IC50 [3]: 68.3 ± 22 nM
Molecule: O=C(NC[C@@H]1NC[C@@H](O)[C@H](O)[C@H]1CO)c1cccc2c1C(=O)c1ccccc1-2 [Compound 27]

- ΔTm at 100 µM [2]: 9.6 °C
Molecule: OC[C@H]1CNC[C@@H](O)[C@@H]1O [IFG, isofagomine]
- β-glucosidase activity enhancement in p.Asn370Ser cells ([1]; 1000 nM): 1.7 fold
- activity enhancement on co-administration with rh-GCase compared to rh-GCase alone [5]: 7 fold
- activity enhancement on co-administration with rh-GCase compared to rh-GCase alone [6]: 6 fold

- IC50 [3]: 3.7 ± 0.4 nM
- fold greater inhibitory potency than IFG ([3]; rh-GCase IC50 compared with IFG): 50 fold
Molecule: O=C(NCC1NCC(O)C(O)C1CO)c1ccc2ccccc2c1 (stereo not shown) [S1]
